Results: US20200222474A1, “COMPOSITIONS AND METHODS FOR INCREASING PHYTOCHEMICAL BIOAVAILABLITY AND BIOACTIVITY” (North Carolina State University, priority 2017, published 2020)

Columns and labels:
L. acidophilus NCFM [1] = assay: Growth of L. acidophilus NCFM on plant glycosides as single carbon source (OD600); format: cell-based, Lactobacillus acidophilus; conditions: for Growth (OD600 max class) of L. acidophilus NCFM: SDM + 1% (w/v) carbohydrate (0.5% esculin), 37° C., 30 hours, corrected to medium without carbohydrate; for OD600 max: single carbon source, 200 μl cultures, 96 microtitre plates, corrected for medium without carbon source
Procedure: (§1) For initial growth and gene expression studies, L. acidophilus NCFM was propagated three times in semi-defined medium (SDM) supplemented with either 1% or 0,5% (w/v) of the plant glycoside or carbohydrate (Table 1). For the RNA-seq analysis, cells were harvested by centrifugation (3,220×10 min, 25° C.) in the mid-exponential phase (OD600=0.6-0.8) and stored at −80° C. for subsequent RNA isolation. For the mass spectrometry metabolite analyses, 200 μt samples were taken at 0, 3, 6, 9, 12, and 24 hours of growth; cells were removed by centrifugation; and supernatants were stored at −80° C. for further analysis.
(§2) Phenotypic growth assays were performed using 1% (v/v) overnight cultures of L. acidophilus strains (Table 2) and other Lactobacillus species (Table 3) grown on SDM supplemented with 1% (w/v) glucose to inoculate 200 μL of SDM supplemented with 1% (w/v) of the examined carbohydrate (0.5% in the case of esculin) in 96-well microplate wells (Corning Costar, Corning, N.Y., USA) in duplicate or triplicate wells, respectively. The microplates were sealed with clear adhesive film, incubated at 37° C. in a Fluostar Optima microplate reader (BMG Labtech, Cary, N.C., USA), and the cell optical density (OD600) was monitored for 30 hours.
The growth of L. acidophilus NCFM was evaluated on twelve chemically diverse, nutritionally relevant and/or therapeutically active PGs 1; Table 1). FIG. 1A provides the structures and common sources of plant glycoside substrates described herein. The compounds that support growth of Lactobacillus acidophilus are in green. RI: β-D-Glcp; R2: Gentiobioside (β-D-Glcp-(1,6)-D-Glcp); R3: Rutinoside (α-L-Rhaf-(1,6)-D-Glcp). The graph in FIG. 1B depicts plant glycoside utilization analyzed by mass spectrometry and the growth as the maximum OD600. Due to the low solubility of polydatin, OD600 cannot be used as a growth metric and utilization of this compound is confirmed by the production of lactate as well as a high utilization level based on the metabolite analysis.

L. acidophilus NCFM [2] = assay: Plant glycoside uptake and metabolite analysis of L. acidophilus NCFM culture supernatants by UHPLC-DAD-Q-TOF-MS; format: cell-based, Lactobacillus acidophilus; conditions: for aglycone / main metabolite identified in culture supernatant: L. acidophilus NCFM growing on the glycoside, up to 24 h; for order of depletion from equimolar mixture of salicin, esculin and amygdalin: culture supernatants, 24 hours growth; for Catabolism based on MS: qualitative: depletion of the plant glycoside and/or appearance of its metabolites
Procedure: as §1
Analysis of plant glycoside uptake from L. acidophilus NCFM culture supernatants using mass spectrometry. The supernatants of L. acidophilus NCFM cultures grown on amygdalin, arbutin, esculin or salicin as carbon sources were analyzed during 24 hours by ultra-high performance liquid chromatography-diode array detection-quadruple time of flight mass spectrometry (UHPLC-DAD-Q-TOF-MS). Samples were diluted 1:20 (v/v) with methanol and an injection volume of […] was used. Separation was carried out on an Agilent Poroshell 120 phenyl-hexyl column (2.1×150 mm, 2.7 μm) using the Agilent Infinity 1290 UHPLC system (Agilent Technologies, Santa Clara, Calif., USA) equipped with a UV/vis spectrum diode array detector. Separation was performed at 0.35 mL min-1., 60° C. with a linear gradient consisting of water (A) and acetonitrile (B) both buffered with 20 mM formic acid, starting at 10% B and increased to 100% in 15 min where it was held for 2 min, returned to 10% in 0.1 min and kept for 3 min. MS detection was performed on an Agilent 6550 iFunnel QTOF MS equipped with Agilent Dual Jet Stream electrospray ion source with the drying gas temperature of 160° C. and gas flow of 13 L min^−1, whereas the sheath gas temperature was 300° C. and flow was 16 L min-1. Ionization was conducted in ESI-mode with capillary voltage set to 4000 V and nozzle voltage to 500 V. Mass spectra were recorded as centroid data for m/z 85-1700 in MS mode with an acquisition rate of 10 spectra s^−1. To avoid carry-over, the needle seat was back-flushed for 15 s at 4 mL min-1 with each of: i) isopropanol: 0.2% ammonium hydroxide (w/v) in water (1:1 v/v); ii) acetonitrile with 2% formic acid (w/v); iii) water with 2% formic acid. Data was processed with the Agilent Mass Hunter Qualitative Analysis B.07.00 software package (Agilent Technologies) and molar concentrations were obtained from standard curves of the plant glycosides and their main metabolites. Targeted compound searches were performed using lists of previously identified compounds plus standard chemical modifications.

L. acidophilus LA-1 = assay: Phenotypic growth assay (OD600); format: cell-based; conditions: SDM + 1% (w/v) carbohydrate (0.5% esculin), 37° C., 30 hours; corrected to medium without carbohydrate
Procedure: as §2

[3] = system: L. amyloverus ATCC 33620, DSM 20531; assay: Phenotypic growth assay (OD600); format: cell-based; conditions: SDM + 1% (w/v) carbohydrate (0.5% esculin), 37° C., 30 hours; corrected to medium without carbohydrate
Procedure: as §2

L. animalis DSM 20602 = assay: Phenotypic growth assay (OD600); format: cell-based; conditions: SDM + 1% (w/v) carbohydrate (0.5% esculin), 37° C., 30 hours; corrected to medium without carbohydrate
Procedure: as §2

[4] = system: L. crispatus ATCC 33820, DSM 20584; assay: Phenotypic growth assay (OD600); format: cell-based; conditions: SDM + 1% (w/v) carbohydrate (0.5% esculin), 37° C., 30 hours; corrected to medium without carbohydrate
Procedure: as §2

L. fermentum ATCC 14931 = assay: Phenotypic growth assay (OD600); format: cell-based; conditions: SDM + 1% (w/v) carbohydrate (0.5% esculin), 37° C., 30 hours; corrected to medium without carbohydrate
Procedure: as §2

L. gasseri ATCC 33323 = assay: Phenotypic growth assay (OD600); format: cell-based; conditions: SDM + 1% (w/v) carbohydrate (0.5% esculin), 37° C., 30 hours; corrected to medium without carbohydrate
Procedure: as §2

L. helveticus CNRZ32 = assay: Phenotypic growth assay (OD600); format: cell-based; conditions: SDM + 1% (w/v) carbohydrate (0.5% esculin), 37° C., 30 hours; corrected to medium without carbohydrate
Procedure: as §2

[5] = system: L. intestinalis Th4, ATCC 49335, DSM 6629; assay: Phenotypic growth assay (OD600); format: cell-based; conditions: SDM + 1% (w/v) carbohydrate (0.5% esculin), 37° C., 30 hours; corrected to medium without carbohydrate
Procedure: as §2

[6] = system: L. jensenii ATCC 25258, 62G, DSM 20557; assay: Phenotypic growth assay (OD600); format: cell-based; conditions: SDM + 1% (w/v) carbohydrate (0.5% esculin), 37° C., 30 hours; corrected to medium without carbohydrate
Procedure: as §2

L. johnsonii ATCC 33200 = assay: Phenotypic growth assay (OD600); format: cell-based; conditions: SDM + 1% (w/v) carbohydrate (0.5% esculin), 37° C., 30 hours; corrected to medium without carbohydrate
Procedure: as §2

[7] = system: L. plantarum sp. plantarum ATCC 14917, LA70; assay: Phenotypic growth assay (OD600); format: cell-based; conditions: SDM + 1% (w/v) carbohydrate (0.5% esculin), 37° C., 30 hours; corrected to medium without carbohydrate
Procedure: as §2

[8] = system: L. reuteri (ATCC 23272, DSM 20016); assay: Phenotypic growth assay (OD600); format: cell-based; conditions: SDM + 1% (w/v) carbohydrate (0.5% esculin), 37° C., 30 hours; corrected to medium without carbohydrate
Procedure: as §2

[9] = system: L. rhanmosus GG (ATCC 53103); assay: Phenotypic growth assay (OD600); format: cell-based; conditions: SDM + 1% (w/v) carbohydrate (0.5% esculin), 37° C., 30 hours; corrected to medium without carbohydrate
Procedure: as §2

[10] = growth concentration 0.5% (w/v)

Compound	Growth (OD600 max class) of L. acidophilus NCFM (L. acidophilus NCFM [1])	OD600 max (L. acidophilus NCFM [1]; growth concentration 1% (w/v))	aglycone / main metabolite identified in culture supernatant (L. acidophilus NCFM [2])	order of depletion from equimolar mixture of salicin, esculin and amygdalin (L. acidophilus NCFM [2])	Catabolism based on MS (L. acidophilus NCFM [2]; growth concentration 1% (w/v))	Growth (OD600 max class) of L. acidophilus LA-1 (L. acidophilus LA-1)	Growth (OD600 max class) of L. amyloverus ATCC 33620, DSM 20531 [3]	Growth (OD600 max class) of L. animalis DSM 20602 (L. animalis DSM 20602)	Growth (OD600 max class) of L. crispatus ATCC 33820, DSM 20584 [4]	Growth (OD600 max class) of L. fermentum ATCC 14931 (L. fermentum ATCC 14931)	Growth (OD600 max class) of L. gasseri ATCC 33323 (L. gasseri ATCC 33323)	Growth (OD600 max class) of L. helveticus CNRZ32 (L. helveticus CNRZ32)	Growth (OD600 max class) of L. intestinalis Th4, ATCC 49335, DSM 6629 [5]	Growth (OD600 max class) of L. jensenii ATCC 25258, 62G, DSM 20557 [6]	Growth (OD600 max class) of L. johnsonii ATCC 33200 (L. johnsonii ATCC 33200)	Growth (OD600 max class) of L. plantarum sp. plantarum ATCC 14917, LA70 [7]	Growth (OD600 max class) of L. reuteri (ATCC 23272, DSM 20016) [8]	Growth (OD600 max class) of L. rhanmosus GG (ATCC 53103) [9]	also measured
N#C[C@H](O[C@@H]1O[C@H](CO[C@@H]2O[C@H](CO)[C@@H](O)[C@H](O)[C@H]2O)[C@@H](O)[C@H](O)[C@H]1O)c1ccccc1 [Amygdalin]	+ (“+” signifies 0.3 > OD600 max > 0.1.)	0.3	benzaldehyde	significant amounts of amygdalin persisted after 24 hours	Yes	++ (“++” signifies 0.6 > OD600 max > 0.3.)	− (“−” signifies OD600 max < 0.1.)	− (“−” signifies OD600 max < 0.1.)	− (“−” signifies OD600 max < 0.1.)	− (“−” signifies OD600 max < 0.1.)	− (“−” signifies OD600 max < 0.1.)	+ (“+” signifies 0.3 > OD600 max > 0.1.)	− (“−” signifies OD600 max < 0.1.)	+ (“+” signifies 0.3 > OD600 max > 0.1.)	− (“−” signifies OD600 max < 0.1.)	+++ (“+++” signifies OD600 max > 0.6.)	− (“−” signifies OD600 max < 0.1.)	+++ (“+++” signifies OD600 max > 0.6.)	fraction of the initial glycoside utilized (L. acidophilus NCFM [2]; during 24 hours growth, single carbon source): about a third
O=c1ccc2cc(O[C@@H]3O[C@H](CO)[C@@H](O)[C@H](O)[C@H]3O)c(O)cc2o1 [Esculin]	++ (“++” signifies 0.6 > OD600 max > 0.3.)	–	esculetin	–	–	+++ (“+++” signifies OD600 max > 0.6.)	− (“−” signifies OD600 max < 0.1.)	+ (“+” signifies 0.3 > OD600 max > 0.1.)	++ (“++” signifies 0.6 > OD600 max > 0.3.)	− (“−” signifies OD600 max < 0.1.)	++ (“++” signifies 0.6 > OD600 max > 0.3.)	− (“−” signifies OD600 max < 0.1.)	− (“−” signifies OD600 max < 0.1.)	++ (“++” signifies 0.6 > OD600 max > 0.3.)	− (“−” signifies OD600 max < 0.1.)	++ (“++” signifies 0.6 > OD600 max > 0.3.)	− (“−” signifies OD600 max < 0.1.)	++ (“++” signifies 0.6 > OD600 max > 0.3.)	OD600 max (L. acidophilus NCFM [1]; [10]): 0.4; Catabolism based on MS (L. acidophilus NCFM [2]; [10]): Yes
OCc1ccccc1O[C@@H]1O[C@H](CO)[C@@H](O)[C@H](O)[C@H]1O [Salicin]	+++ (“+++” signifies OD600 max > 0.6.)	0.8	salicyl alcohol	first compound to be fully depleted	Yes	+++ (“+++” signifies OD600 max > 0.6.)	− (“−” signifies OD600 max < 0.1.)	+ (“+” signifies 0.3 > OD600 max > 0.1.)	+++ (“+++” signifies OD600 max > 0.6.)	− (“−” signifies OD600 max < 0.1.)	++ (“++” signifies 0.6 > OD600 max > 0.3.)	− (“−” signifies OD600 max < 0.1.)	− (“−” signifies OD600 max < 0.1.)	++ (“++” signifies 0.6 > OD600 max > 0.3.)	+ (“+” signifies 0.3 > OD600 max > 0.1.)	+++ (“+++” signifies OD600 max > 0.6.)	− (“−” signifies OD600 max < 0.1.)	+++ (“+++” signifies OD600 max > 0.6.)	–
